Data from patent US20060276523A1 (priority 2003, published 2006).
Read-outs that look alike come from different tables or passages of the source.

What was measured:
[1] = tested on: isolated rabbit thoracic aorta preparations; test: Studies on vascular tone: vasorelaxation of noradrenaline-precontracted aortic rings; format: cell-based; details: rabbit aortic rings precontracted with noradrenaline 1 μM; for IC50: functional endothelium, read-out: IC50 (μM) ± sem (vasorelaxation)
Procedure: The ability of the nitroderivatives of ARB to induce vasorelaxation in comparison to native ARB, was tested in vitro in isolated rabbit thoracic aorta preparations (Wanstall J. C. et al., Br. J. Pharmacol., 134:463-472, 2001). Male New Zealand rabbits were anaesthetized with thiopental-Na (50 mg/kg, iv), sacrificed by exsanguinations and then the thorax was opened and the aorta dissected. Aortic ring preparations (4 mm in length) were set up in physiological salt solution (PSS) at 37° C. in small organ chambers (5 ml). The composition of PSS was (mM): NaCl 130, NaHCO3 14.9, KH2PO4 1.2, MgSO4 1.2, HEPES 10, CaCl2, ascorbic acid […] and glucose 1.1 (95% O2/5% CO2; pH 7.4). Each ring was mounted under 2 g passive tension. Isometric tension was recorded with a Grass transducer (Grass FT03) attached to a BIOPAC MP150 System. Preparations were allowed to equilibrate for 1 h, and then contracted submaximally with noradrenaline (NA, 1 μM) and, when the contraction was stable, acetylcholine (ACh, 10 μM) was added. A relaxant response to ACh indicated the presence of a functional endothelium. […] When a stable precontraction was reached, a cumulative concentration-response curve to either of the vasorelaxant agents was obtained in the presence of a functional endothelium. Each arterial ring was exposed to only one combination of inhibitor and vasorelaxant. Moreover, the effect of the soluble guanylyl cyclase inhibitor ODQ (1-H-(1,2,4)-oxadiazol(4,3-a)quinoxalin-1-one) on vasorelaxation elicited by the compounds was examined preincubating the aortic rings with ODQ (10 μM) for 20 min.
Responses to relaxing agents are expressed as a percentage of residual contraction and plotted against concentration of test compound. IC50 values (where IC50 is the concentration producing 50% of the maximum relaxation to the test compound) were interpolated from these plots.
During the experimental period, the plateau obtained with NA was stable without significant spontaneous loss of contraction in the aortic rings.

[2] = tested on: human platelets; test: Antiplatelet activity: U46619-induced platelet aggregation in platelet rich plasma (Born method); format: cell-based; details: 2 min, human PRP, aggregating agent U46619, incubation 2 min at 37° C., read-out: Platelet aggregation (PRP) (incubation time: 2 min) IC50
Procedure: Aggregating agent used was U46619, a TxA2 analog, based on the evidence that this agonist is sensitive to the effects of nitric oxide. Compounds were incubated at 37° C. for 2 min before adding the aggregating agent. Aggregation was followed for 5 min and the maximal amplitude (cm) was measured. DMSO (0.05% final concentration) was used as vehicle. Compounds were tested at concentrations ranging from 10 to 100 μM.

[3] = tested on: spontaneously hypertensive rats (SHRs); test: Antihypertensive activity in conscious spontaneously hypertensive rats (telemetry); format: in vivo; details: SHR; for Systolic blood pressure (mmHg), 30 min: 30 min after dosing; for Systolic blood pressure (mmHg), 30 min / Systolic blood pressure (mmHg), 12 hrs / Systolic blood pressure (mmHg), 24 hrs: losartan 10 mg/kg po, EX. 2 12 mg/kg po (equimolar); for Systolic blood pressure (mmHg), 12 hrs: 12 hrs after dosing; for Systolic blood pressure (mmHg), 24 hrs: 24 hrs after dosing; for Systolic blood pressure (mmHg), Baseline: groups losartan 10 mg/kg po, EX. 2 12 mg/kg po
Text: Systolic blood pressure (SBP) and heart rate were monitored by telemetry at different time points after dosing.

[4] = tested on: RAW 264.7 macrophages; test: Inhibition of LPS-induced nitrite accumulation (Griess reaction); format: cell-based; details: for Nitrite (% vs vehicle): 25 μM, LPS 1 μg/ml for 16 hrs, RAW 264.7
Procedure: The experiments were performed using RAW 264.7 monocyte macrophage cell line. Cells were stimulated in the presence of lipopolysaccharide (LPS) (1 μg/ml) for 16 hrs. At the end of the incubation, the culture media were collected and analyzed for nitrite content using a standard Griess reaction.
The results reported in Table 2 are expressed as % of nitrite content for each treatment vs. LPS-treated samples.

Row | IC50 ([1]; Oryctolagus cuniculus) [µM] | IC50 [2] [µM] | Compound | Systolic blood pressure (mmHg), 30 min ([3]; daily oral dose for 3 days) [mmHg] | Systolic blood pressure (mmHg), 12 hrs ([3]; daily oral dose for 3 days) [mmHg] | Systolic blood pressure (mmHg), 24 hrs ([3]; daily oral dose for 3 days) [mmHg] | Systolic blood pressure (mmHg), Baseline [3] [mmHg] | reduction in blood pressure levels over the treatment period (in words) ([3]; daily oral dose for 3 days) | Nitrite (% vs vehicle) [4] [% vs vehicle] | inhibition of accumulation of nitrites induced by LPS (in words) ([4]; RAW 264.7, LPS) | IC50 [1] [µM] | relaxation of aortic rings (in words) [1]
1 | 33 ± 12 | 5 | CCCCc1nc(Cl)c(COC(=O)c2ccc(CO[N+](=O)[O-])cc2)n1Cc1ccc(-c2ccccc2-c2nn[nH]n2)cc1 [EX. 1, 2-butyl-4-chloro-1-[[2′-(1H-tetrazol-5-yl)[1,1′-biphenyl]-4-yl]methyl]-1H-imidazole-5-methanol 4-(nitrooxymethyl) benzoic acid ester] | – | – | – | – | – | – | – | – | –
2 | 54 ± 16 | – | CCCCc1nc(Cl)c(COC(=O)c2cccc(CO[N+](=O)[O-])c2)n1Cc1ccc(-c2ccccc2-c2nn[nH]n2)cc1 [EX. 4, 2-butyl-4-chloro-1-[[2′-(1H-tetrazol-5-yl)[1,1′-biphenyl]-4-yl]methyl]-1H-imidazole-5-methanol 3-(nitrooxymethyl) benzoic acid ester] | – | – | – | – | – | 61 ± 3 | able to inhibit the accumulation of nitrites induced by LPS | – | –

The remaining lines, values behind:

Row | Compound | IC50 ([1]; Oryctolagus cuniculus) [µM] | IC50 [2] [µM] | Systolic blood pressure (mmHg), 30 min ([3]; daily oral dose for 3 days) [mmHg] | Systolic blood pressure (mmHg), 12 hrs ([3]; daily oral dose for 3 days) [mmHg] | Systolic blood pressure (mmHg), 24 hrs ([3]; daily oral dose for 3 days) [mmHg] | Systolic blood pressure (mmHg), Baseline [3] [mmHg] | reduction in blood pressure levels over the treatment period (in words) ([3]; daily oral dose for 3 days) | Nitrite (% vs vehicle) [4] [% vs vehicle] | inhibition of accumulation of nitrites induced by LPS (in words) ([4]; RAW 264.7, LPS) | IC50 [1] [µM] | relaxation of aortic rings (in words) [1]
3 | CCCCc1nc(Cl)c(COC(=O)CCCO[N+](=O)[O-])n1Cc1ccc(-c2ccccc2-c2nn[nH]n2)cc1 [EX. 2, 2-butyl-4-chloro-1-[[2′-(1H-tetrazol-5-yl)[1,1′-biphenyl]-4-yl]methyl]-1H-imidazole-5-methanol 4-nitrooxybutanoic acid ester] | 15 ± 3 | 11 | 115 | 126 | 128 | 143 | able to induce a clear reduction in blood pressure levels | – | – | – | –
4 | CCCCc1nc(Cl)c(COC(=O)CCCCCO[N+](=O)[O-])n1Cc1ccc(-c2ccccc2-c2nnn[nH]2)cc1 [EX. 5, 2-butyl-4-chloro-1-[[2′-(H-tetrazol-5-yl)[1,1′-biphenyl]-4-yl]methyl]-1H-imidazole-5-methanol 6-nitrooxyhexanoic acid ester] | – | – | – | – | – | – | – | – | – | 18 ± 6 | –
5 | CCCCc1nc(Cl)c(CO)n1Cc1ccc(-c2ccccc2-c2nn[nH]n2)cc1 [Losartan, reference compound] | > 100 | – | 133 | 135 | 136 | 143 | – | 99 ± 9 | – | – | did not produce relaxation at any of the concentration tested
